The experiment has as its target T1, human GPR52 (Homo sapiens, UniProt Q9Y2T5).
T1 construct: expressed in transfected cells; host or cells: CHO-K1
Kind of experiment: HTRF assay for direct cAMP measurement. It counts as cell-based. The conditions noted are these: CHO-K1 cells stably expressing recombinant human GPR52, mean EC50. The method, then: Homogeneous Time-Resolved Fluorescence (HTRF) Assay for Direct cAMP Measurement.
HTRF cAMP assays were performed using commercially available assay kits according to the manufacturer's instructions (cAMP Dynamic 2 Assay Kit; #62AM4PEJ, Cisbio Bioassays, Bedford, Mass.). An aliquot of CHO-K1 cells stably expressing recombinant human GPR52 is thawed and resuspended in cell buffer (1×PBS (w/o Ca^2+/Mg^2+)) at a density of 4×10^5 cells per mL Test compounds were solubilized in DMSO to 10 mM stock solutions and serially diluted in DMSO using 6-fold dilutions to generate 8-point dose response curves. These serially diluted samples were then diluted 1:50 in compound dilution buffer (1×PBS (w/o Ca^2+/Mg^2+) containing 0.5 mM IBMX, 0.1% BSA) to achieve a 4× stock. The diluted compounds were transferred (5 μL per well) in duplicate to the 384-well assay plate (Optiplate #6007290, PerkinElmer, Waltham, Mass.). Both a positive (reference compound) and negative (non-stimulated vehicle) control are included in each assay run in column 23. The cell suspension was subsequently dispensed into the 384-well assay plates at 15 μL per well (6000 cells) such that the compound was diluted to 1×. […] After a one-hour incubation at room temperature, 10 μL of cAMP D2 reagent followed by 10 μL of cryptate reagent (provided in the Cisbio kit) was added to each well. Plates were then incubated at room temperature for one hour prior to reading. Time-resolved fluorescence measurements were collected on an EnVision® HTRF plate reader (PerkinElmer, Waltham, Mass.). Counts from the plate reader were fit to the cAMP standard curve included on each plate to determine the amount of cAMP in each test well. The % control was calculated based on the positive control set at […]. Dose-response curves were generated from the cAMP data and analyzed using a nonlinear least squares curve-fitting program to obtain EC50 values.
For orientation: TR-FRET usually uses a lanthanide donor and a delayed reading to cut background.

T1 sequence (Q9Y2T5 whole entry): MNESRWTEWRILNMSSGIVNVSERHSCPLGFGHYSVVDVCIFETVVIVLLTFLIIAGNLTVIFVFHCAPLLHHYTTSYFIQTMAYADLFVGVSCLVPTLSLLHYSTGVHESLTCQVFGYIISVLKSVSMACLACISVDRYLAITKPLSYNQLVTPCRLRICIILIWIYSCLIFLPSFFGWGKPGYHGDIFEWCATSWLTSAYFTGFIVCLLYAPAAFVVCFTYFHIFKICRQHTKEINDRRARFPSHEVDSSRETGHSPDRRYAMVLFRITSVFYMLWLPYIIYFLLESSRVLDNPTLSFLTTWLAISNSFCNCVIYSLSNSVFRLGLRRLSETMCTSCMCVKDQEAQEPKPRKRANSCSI

On to `Cc1cc(NC(=O)c2nccnc2N2CC(Oc3cc(F)c(F)c(Cl)c3)C2)ncn1` [Example 32], for which the EC50 (as a rule, the concentration needed to bring the measured effect to its halfway point) was 8 nM. In the case of `O=C(Nc1cc(C(F)(F)F)ncn1)c1nccnc1N1CC(Oc2ccc(F)c(Cl)c2)C1` [Example 45], the EC50 turned out to be 14 nM. Take `CCc1cc(NC(=O)c2nccnc2N2CC(Oc3cc(F)cc(C(F)(F)F)c3)C2)ncn1` [Example 34]: the EC50 worked out at 30 nM. The result for `O=C(Nc1ccncn1)c1nccnc1N1CC(Oc2cc(F)c(F)c(F)c2)C1` [Example 42] reads 23 nM. For `Cc1cc(NC(=O)c2nccnc2N2CC(Oc3cc(F)cc(C(F)(F)F)c3)C2)ncn1` [Example 31] the value was 17 nM. With `CCc1cc(NC(=O)c2nccnc2N2CC(Oc3cc(F)c(F)c(Cl)c3)C2)cnn1` [Example 23], the EC50 came out at 6 nM.

In the case of `Cc1cc(NC(=O)c2nccnc2N2CC(Oc3cc(F)cc(Cl)c3)C2)ncn1` [Example 30], the EC50 amounted to 8 nM. The result for `O=C(Nc1ccnnc1)c1nccnc1N1CC(Oc2cc(F)c(F)c(Cl)c2)C1` [Example 8] reads 4 nM; that for `O=C(Nc1cc(C(F)(F)F)ncn1)c1nccnc1N1CC(Oc2ccc(F)c(F)c2)C1` [Example 46], 7 nM. Take `O=C(Nc1ccnnc1)c1nccnc1N1CC(Oc2ccc(F)c(F)c2)C1` [Example 5]: the EC50 was found to be 10 nM. Regarding `CCc1cc(NC(=O)c2nccnc2N2CC(Oc3cc(F)cc(C(F)F)c3)C2)cnn1` [Example 22], the 50% effective concentration (EC50) stood at 7 nM. Regarding `O=C(Nc1ccncn1)c1nccnc1N1CC(Oc2cc(F)c(F)c(Cl)c2)C1` [Example 41], the EC50 amounted to 12 nM. The result for `CCc1cc(NC(=O)c2nccnc2N2CC(Oc3cc(F)c(F)c(F)c3)C2)ncn1` [Example 36] reads 6 nM; that for `Cc1cc(NC(=O)c2nccnc2N2CC(Oc3cc(F)c(F)c(F)c3)C2)ncn1` [Example 26], 6 nM. As for `O=C(Nc1ccnnc1)c1nccnc1N1CC(Oc2ccc(F)c(Cl)c2)C1` [Example 7], the EC50 is 10 nM. As for `O=C(Nc1ccnnc1)c1nccnc1N1CC(Oc2cc(F)cc(F)c2)C1` [Example 3], the EC50 came to 19 nM.

`O=C(Nc1ccncn1)c1nccnc1N1CC(Oc2ccc(F)c(F)c2)C1` [Example 43]: the EC50 came out at 45 nM. `CCc1cc(NC(=O)c2nccnc2N2CC(Oc3cc(F)cc(F)c3)C2)cnn1` [Example 24]: the EC50 was 6 nM. Consider `O=C(Nc1ccnnc1)c1nccnc1N1CC(Oc2cc(F)cc(C(F)F)c2)C1` [Example 6], for which the EC50 worked out at 6 nM. Consider `Cc1cc(NC(=O)c2nccnc2N2CC(Oc3cc(F)cc(C(F)(F)F)c3)C2)cnn1` [Example 9], for which the EC50 stood at 14 nM. Regarding `CCc1cc(NC(=O)c2nccnc2N2CC(Oc3ccc(F)c(Cl)c3)C2)cnn1` [Example 19], the EC50 stood at 4 nM. In the case of `O=C(Nc1ccnnc1)c1nccnc1N1CC(Oc2cc(F)cc(C(F)(F)F)c2)C1` [Example 1], the EC50 turned out to be 9 nM.

`Cc1cc(NC(=O)c2nccnc2N2CC(Oc3cc(F)cc(C(F)F)c3)C2)ncn1` [Example 27]: the EC50 amounted to 11 nM.

`Cc1cc(NC(=O)c2nccnc2N2CC(Oc3cc(F)cc(F)c3)C2)ncn1` [Example 28]: the EC50 amounted to 12 nM. The result for `CCc1cc(NC(=O)c2nccnc2N2CC(Oc3ccc(F)c(Cl)c3)C2)ncn1` [Example 40] reads 5 nM; that for `CCc1cc(NC(=O)c2nccnc2N2CC(Oc3cc(F)cc(Cl)c3)C2)cnn1` [Example 18], 6 nM. For `CCc1cc(NC(=O)c2nccnc2N2CC(Oc3cc(F)c(F)c(F)c3)C2)cnn1` [Example 20], the EC50 was 5 nM. For the compound `Cc1cc(NC(=O)c2nccnc2N2CC(Oc3ccc(F)c(Cl)c3)C2)ncn1` [Example 25], the EC50 stood at 4 nM. On to `CCc1cc(NC(=O)c2nccnc2N2CC(Oc3cc(F)cc(C(F)(F)F)c3)C2)cnn1` [Example 17], for which the EC50 stood at 11 nM. As to `Cc1cc(NC(=O)c2nccnc2N2CC(Oc3ccc(F)c(Cl)c3)C2)cnn1` [Example 16], the EC50 came to 4 nM. With `CCc1cc(NC(=O)c2nccnc2N2CC(Oc3cc(F)cc(Cl)c3)C2)ncn1` [Example 35], the 50% effective concentration (EC50) was determined as 8 nM. For `CCc1cc(NC(=O)c2nccnc2N2CC(Oc3cc(F)c(F)c(Cl)c3)C2)ncn1` [Example 38], the EC50 turned out to be 9 nM. As to `CCc1cc(NC(=O)c2nccnc2N2CC(Oc3cc(F)cc(F)c3)C2)ncn1` [Example 33], the EC50 is 10 nM. For `O=C(Nc1ccnnc1)c1nccnc1N1CC(Oc2cc(F)cc(Cl)c2)C1` [Example 2], the EC50 came to 9 nM. Regarding `CCc1cc(NC(=O)c2nccnc2N2CC(Oc3cc(F)cc(C(F)F)c3)C2)ncn1` [Example 39], the EC50 was 12 nM. `CCc1cc(NC(=O)c2nccnc2N2CC(Oc3ccc(F)c(F)c3)C2)ncn1` [Example 37]: the EC50 stood at 3 nM. Regarding `O=C(Nc1ccncn1)c1nccnc1N1CC(Oc2ccc(F)c(Cl)c2)C1` [Example 44], the EC50 was determined as 37 nM.

(Values after patent US11780827B2, “Substituted 3-phenoxyazetidin-1-yl-pyrazines” (Boehringer Ingelheim International GmbH, priority 2020, dated 2023).)
